Measurements reported in the METLIN SMRT retention time set (Domingo-Almenara et al. 2019).

Assay: gradient 5% acetonitrile 3 min, to 50% in 2 min, to 85% in 15 min, held 3 min, 100 µL/min
Details: column: Zorbax Extend-C18 2.1 x 50 mm; eluents: water / acetonitrile, 0.1% formic acid
Summary of the method: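 A Zorbax Extend-C18 column (2.1 × 50 mm, 1.8 μm) run at 100 μL/min with water and acetonitrile, both containing 0.1% formic acid, separated mixtures of ~100 pure standards. The HPLC was coupled to a quadrupole time-of-flight mass spectrometer operated in positive and negative ionization mode, with dead and dwell volumes of 40 μL and 900 μL. Each retention time was taken from a computationally picked adduct peak that was then manually inspected.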

Row | RP-LC retention time | SMILES
1 | 662 s | COc1cc(C(=O)OC(C)CN2CCOCC2)cc(OC)c1OC (centres undefined)
2 | 809 s | CCc1cccc(NC(=O)Cn2c(-c3cnccn3)nc(C)c(C)c2=O)c1
3 | 859 s | Cc1ccc(Nc2nc(-c3ccc(C)c(C)c3)cs2)nc1
4 | 799 s | COc1cccc(-n2ccc(=O)c(-c3nc(-c4ccc5c(c4)OCO5)no3)n2)c1
5 | 701 s | O=C(Nc1ccc(N2CCCN(C(=O)C3CC3)CC2)cc1)c1cncc(Br)c1
6 | 742 s | CCC(C)NC(=O)NCCC1CCN(S(=O)(=O)c2ccccc2)CC1 (centres undefined)
7 | 630 s | Cc1ccc(-c2noc(CCN3CCN(C)CC3)n2)cc1
8 | 872 s | O=c1n(Cc2cccc(F)c2)nc2c(S(=O)(=O)N3CCCCC3)cccn12
9 | 1070 s | CCn1cc(-c2nc(C)c(C(=O)Nc3ccc(F)c(F)c3)s2)c2cccnc21
10 | 890 s | CCCn1c(=O)sc2cc(S(=O)(=O)N3CCC(C(=O)NC4CCCC4)CC3)ccc21
11 | 635 s | CC(=O)c1ccc(NC(=O)Cn2c(=O)nc(NC3CCCC3)c3ccccc32)cc1
12 | 790 s | COc1ccc(NC(=O)N2C[C@@H](F)C[C@H]2C(=O)N2CCc3ccccc3C2)c(OC)c1
13 | 542 s | COC(=O)N1CCN(CCNC(=O)c2cccc3ccccc23)CC1
14 | 927 s | CC(C)NC(=O)c1ccccc1OCC1CCN(C(=O)c2cc(F)cc(F)c2)CC1
15 | 712 s | COc1ccc(-n2nc3c(N4CCCC(C(=O)NCCc5ccco5)C4)nnc(C)c3c2C)cc1 (centres undefined)
16 | 1160 s | COc1ccc(/C=C/C(=O)c2c(OC)cc(O)cc2OC)cc1
17 | 858 s | Cc1ccc(NC(=O)N2C[C@H](c3nc(-c4ccncc4)no3)[C@@H](C)C2)cc1C
18 | 894 s | Cc1cc(C(=O)Nc2nnc(SCC(=O)N3CCCc4ccccc43)s2)c(C)o1
19 | 644 s | CN1C2CCC1CC(OC(=O)c1c[nH]c3ccccc13)C2 (centres undefined)
20 | 826 s | O=C(NCC1CC1)C1CCN(c2nc3ccsc3c(=O)n2Cc2ccc(F)cc2)CC1
21 | 583 s | CCn1cnc(S(=O)(=O)N2CCCC(C(=O)NCCN3CCCCCC3)C2)c1 (centres undefined)
22 | 903 s | O=C(NCc1ccc(-c2noc(-c3ccc(F)c(F)c3)n2)s1)C1CC1
23 | 609 s | CC(=O)N1CCCC(c2nc(CNC(=O)C(C)C)cs2)C1 (centres undefined)

Row | RP-LC retention time | SMILES
24 | 936 s | CCCN(CC1CCOC1)S(=O)(=O)c1ccc(OC)c(Cl)c1 (centres undefined)
25 | 1140 s | COCCNC(=O)NC1CCN(C2=NS(=O)(=O)C(c3ccc(C)cc3)=C2C)CC1
26 | 800 s | O=S(=O)(Cc1ccc(Cl)cc1)Nc1cccn2ncnc12
27 | 737 s | O=C(O)c1ccc(Nc2c(-c3ccc(Cl)cc3)nc3cnccn23)cc1
28 | 880 s | O=C(NCc1ccco1)C1CCCN(c2nccnc2Sc2ccccc2)C1 (centres undefined)
29 | 704 s | CCc1ccccc1NC(=O)Cc1c(C)nn(-c2nc(-c3ccccc3)cs2)c1C
30 | 969 s | Cc1nc(NC(=O)c2ccc(OCc3nc(C4CC4)cs3)cc2)sc1C
31 | 684 s | Cc1nc(C)c(C(=O)N2CCC(CC(=O)N3CCOCC3)C2)s1 (centres undefined)
32 | 668 s | Cc1nc(-c2noc(-c3cccnc3)n2)cn1CC(=O)NC1CCCCC1
33 | 655 s | O=c1oc2c(O)c(O)ccc2c2c1CCC2
34 | 643 s | Nc1ncnc(NCc2ccco2)c1[N+](=O)[O-]
35 | 976 s | COc1ccc(-c2nc(-c3ccc4oc(C)nc4c3)no2)c(OC)c1
36 | 999 s | Cc1ccc(Cc2nc(-c3cccc(-c4ccn[nH]4)c3)no2)cc1
37 | 666 s | Cc1nc(-c2cc(S(=O)(=O)N3CCC(C(=O)NCCN4CCCCCC4)CC3)c(C)s2)no1
38 | 790 s | CC(Cc1ccco1)NC(=O)Cn1c2ccccc2c2cnn(C)c(=O)c21 (centres undefined)
39 | 1040 s | Cc1ccccc1CNC(=O)C1(C)CCCN(C(=O)Nc2ccc(F)c(Cl)c2)C1 (centres undefined)
40 | 603 s | CCN(CCNC(=O)C12CCCC=C1N(Cc1ccccc1)C(=O)CC2)Cc1ccccc1 (centres undefined)
41 | 691 s | COC(=O)C1=CC(=O)N2CCN=C2S1
42 | 693 s | CCN(C(=O)c1nc(N2CCOCC2)c2cnn(C)c2n1)c1ccccc1
43 | 900 s | Cc1ccc(Nc2nc(-c3ccccc3)c(CC(=O)O)s2)cc1
44 | 743 s | CCc1ccc(CNC(=O)Cc2nnc(-c3ccccn3)o2)cc1
45 | 800 s | CCC(C)NC(=O)Cn1c(=O)n(-c2cc(OC)cc(OC)c2)c(=O)c2ccccc21 (centres undefined)
46 | 679 s | O=C(Cc1cccs1)N1CCn2c(nnc2-c2ccccc2)C1

Row | RP-LC retention time | SMILES
47 | 947 s | CC1=C(c2ccc(C(C)C)cc2)S(=O)(=O)N=C1N1CCC(C(=O)NCCc2ccco2)CC1
48 | 658 s | CCC(C)NC(=O)C1c2ccccc2CC(=O)N1C (centres undefined)
49 | 632 s | CCOC(=O)N1CCC(NS(=O)(=O)C2CC2)CC1
50 | 602 s | CN(Cc1ccc(Cl)cc1)Cc1cc(=O)n2ccccc2n1
51 | 548 s | CCNC(=O)N1CCOc2ccc(N(C)C)cc2C1
52 | 702 s | Cc1ccc(CCNC(=O)c2cc3sccc3n2Cc2ccc(F)cc2)cc1
53 | 677 s | CCc1cc(=O)n(CC(=O)Nc2cccc(C(C)=O)c2)c(N2CCOCC2)n1
54 | 1040 s | Cc1ccc(-c2cc3c4nnc(SCC(=O)Nc5cccc(C(F)(F)F)c5)n4ccn3n2)cc1
55 | 947 s | Cc1nc2cccnc2n1C1CCN(C(=O)Nc2cccc(F)c2)CC1
56 | 803 s | CC1=C(c2ccccc2)S(=O)(=O)N=C1N1CCCN(C(=O)C(C)(C)C)CC1
57 | 845 s | CC(C)CN1C(=O)CCc2cc(NS(=O)(=O)c3ccccc3F)ccc21
58 | 572 s | C=CCNc1nnc(SCC(=O)N2CCC(C(N)=O)CC2)s1
59 | 573 s | Cc1nnc2n1CCC(NC(=O)Cc1ccsc1)CC2 (centres undefined)
60 | 1230 s | CCc1nc2cc(-c3noc(-c4cccc(N(C)C)c4)n3)ccc2o1
61 | 1020 s | COC(=O)c1ccc2c(=O)n(-c3cccc(OC)c3)c(N3CCSC3)nc2c1
62 | 735 s | O=C(c1cc(C2CC2)[nH]n1)N1CC(n2cc(COc3ccc(F)cc3)nn2)C1
63 | 1120 s | O=C(CN1C(=O)C(C(=O)N2CCCCC2)Sc2ccccc21)NCCC1=CCCCC1 (centres undefined)
64 | 726 s | COCCNC(=O)Cn1nc2cc(C)nc(-c3ccc(C(F)(F)F)cc3)n2c1=O
65 | 760 s | CCOC1CCN(C(=O)c2ccc(F)cc2)CC1
66 | 631 s | Cn1cc(CN2CCC(C(=O)N3CCCC3)CC2)c2cc(Cl)ccc21
67 | 618 s | COc1ccc(NC(=O)c2cccn(C)c2=O)cc1N1CCCC1=O

Row | SMILES | RP-LC retention time
68 | CC1=CC(=O)C2=C(C)C[C@H](O)[C@H]3[C@H](C)C(=O)O[C@@H]3C12 (some centres undefined) | 725 s
69 | COc1c(OP2(=S)OCC(C)(C)CO2)cnn(C2CCCCC2)c1=O | 1190 s
